Experimental data as given in the SangsterLogP compilation.

Test: method code SF-FL/RC, from DOI: 10.1007/bf00499868, PMID: 43479
Details: for logD: pH 7.4

| Compound | logP | logD |
| --- | --- | --- |
| CNC[C@H](O)c1ccc(O)c(O)c1 | -1.37 | – |
| C[C@H](N)[C@H](O)c1cccc(O)c1 | -0.27 | – |
| CNCC(O)c1ccc(O)c(OC)c1 (stereo unspecified) | -0.64 | – |
| NCC(O)c1ccc(O)cc1 (stereo unspecified) | -0.75 | – |
| OCC(O)c1ccc(O)c(O)c1 (stereo unspecified) | – | -1.01 |
| COc1cc(CCN)ccc1O | -0.08 | – |
| COc1cc(CCO)ccc1O | – | 0.47 |
| COc1cc(C(O)CO)ccc1O (stereo unspecified) | – | -0.58 |
| COc1cc(C(O)CN)ccc1O (stereo unspecified) | -1.05 | – |
| CC(N)C(O)c1ccc(O)c(O)c1 (stereo unspecified) | -1.43 | – |
| CNCC(O)c1ccc(O)cc1 (stereo unspecified) | -0.45 | – |
